The NIST ThermoML archive (doi:10.1016/j.jct.2007.07.005)

Assay: xn = mol fraction of the nth substance listed
Conditions: Fluid (supercritical or subcritical phases), vibrating tube

CCCCCO [pentan-1-ol] + O=C=O
Conditions | mass density [kg/m3]
352.81 K, 18013 kPa, x2 = 0.0816 | 786.86
352.81 K, 18017 kPa, x2 = 0.9216 | 678.45
352.81 K, 18023 kPa, x2 = 0.7274 | 779.16
352.81 K, 18992 kPa, x2 = 0.0816 | 787.69
352.81 K, 19030 kPa, x2 = 0.9216 | 693.91
352.81 K, 19050 kPa, x2 = 0.7274 | 783.67
352.81 K, 19999 kPa, x2 = 0.7274 | 787.59
352.81 K, 20017 kPa, x2 = 0.9216 | 707.27
352.81 K, 20032 kPa, x2 = 0.0816 | 788.58
352.81 K, 20998 kPa, x2 = 0.0816 | 789.4
352.81 K, 21041 kPa, x2 = 0.9216 | 719.46
352.81 K, 21063 kPa, x2 = 0.7274 | 791.77
352.81 K, 22012 kPa, x2 = 0.0816 | 790.22
352.81 K, 22020 kPa, x2 = 0.7274 | 795.33
352.81 K, 22043 kPa, x2 = 0.9216 | 730.24
352.81 K, 23032 kPa, x2 = 0.9216 | 740.03
352.81 K, 23038 kPa, x2 = 0.7274 | 798.99
352.81 K, 23043 kPa, x2 = 0.0816 | 791.09
352.81 K, 23982 kPa, x2 = 0.7274 | 802.22
352.81 K, 24064 kPa, x2 = 0.0816 | 791.93
352.81 K, 25028 kPa, x2 = 0.0816 | 792.72
352.81 K, 25068 kPa, x2 = 0.7274 | 805.8
352.86 K, 7013 kPa, x2 = 0.1347 | 777.29
352.86 K, 8003 kPa, x2 = 0.1347 | 778.24
352.86 K, 9042 kPa, x2 = 0.1347 | 779.29
352.86 K, 9997 kPa, x2 = 0.1347 | 780.21
352.86 K, 11043 kPa, x2 = 0.1347 | 781.23
352.86 K, 12025 kPa, x2 = 0.1347 | 782.2
352.86 K, 13003 kPa, x2 = 0.1347 | 783.16
352.86 K, 14006 kPa, x2 = 0.1347 | 784.13
352.86 K, 15015 kPa, x2 = 0.1347 | 785.07
352.86 K, 16005 kPa, x2 = 0.1347 | 786.01
352.86 K, 17031 kPa, x2 = 0.1347 | 786.94
352.86 K, 18022 kPa, x2 = 0.1347 | 787.86
352.86 K, 19009 kPa, x2 = 0.1347 | 788.74
352.86 K, 20022 kPa, x2 = 0.1347 | 789.63
352.86 K, 21024 kPa, x2 = 0.1347 | 790.52
352.86 K, 21995 kPa, x2 = 0.1347 | 791.37
352.86 K, 23030 kPa, x2 = 0.1347 | 792.28
352.86 K, 24029 kPa, x2 = 0.1347 | 793.15
352.86 K, 25004 kPa, x2 = 0.1347 | 793.98
352.88 K, 14062 kPa, x2 = 0.6054 | 787.97
352.88 K, 15034 kPa, x2 = 0.6054 | 790.53
352.88 K, 16029 kPa, x2 = 0.6054 | 793.07
352.88 K, 17048 kPa, x2 = 0.6054 | 795.6
352.88 K, 18046 kPa, x2 = 0.6054 | 798.05
352.88 K, 19026 kPa, x2 = 0.6054 | 800.32
352.88 K, 20030 kPa, x2 = 0.6054 | 802.6
352.88 K, 21058 kPa, x2 = 0.6054 | 804.93
352.88 K, 22056 kPa, x2 = 0.6054 | 807.03
352.88 K, 23049 kPa, x2 = 0.6054 | 809.11
352.88 K, 24065 kPa, x2 = 0.6054 | 811.21
352.88 K, 25092 kPa, x2 = 0.6054 | 813.29
362.58 K, 20013 kPa, x2 = 0.9757 | 578.28
362.58 K, 21042 kPa, x2 = 0.9757 | 600.7
362.58 K, 22020 kPa, x2 = 0.9757 | 619.68
362.58 K, 23010 kPa, x2 = 0.9757 | 637.03
362.58 K, 24034 kPa, x2 = 0.9757 | 653.33
362.58 K, 25047 kPa, x2 = 0.9757 | 667.94
362.59 K, 517 kPa, x2 = 0 | 759.7
362.59 K, 1023 kPa, x2 = 0 | 760.25
362.59 K, 2005 kPa, x2 = 0 | 761.26
